The numbers were not newly measured in patent US20190269662A1, “SOLID COMPOSITIONS OF ACTIVES, PROCESSES FOR PREPARING SAME AND USES OF SUCH SOLID COMPOSITIONS” (The University of Liverpool, priority 2018, published 2019), which cites them from elsewhere.

For the data set the following is noted: background statement; cited from earlier work.

Consider `Cc1nnc(C(C)C)n1[C@@H]1C[C@H]2CC[C@@H](C1)N2CC[C@H](NC(=O)C1CCC(F)(F)CC1)c1ccccc1` [maraviroc], for which the oral bioavailability result is “approximately 33%”.
